{"source": "patent US6410486B1", "about": "(priority 1997, dated 2002)", "tested_on": "Pyricularia oryzae", "assay_type": "in vivo", "settings": "root application as in Use Example 2, untreated control 80%", "note": "Like-named read-outs stand apart in the source and are kept apart here.", "data": [{"compound": "CC(NC(=O)C(C#N)C1CC1)c1ccc(Cl)cc1", "note": "(centres unmarked) [I.1, N-(4′-Chlorophenyl)ethyl-1-cyclopropyl-1-cyanoacetamide]", "values": [{"measurement": "% infestation of leaves after application of an aqueous active compound preparation containing . . . ppm", "setting": "10 ppm", "value": 20, "unit": "%"}, {"measurement": "% infestation of leaves after application of an aqueous active compound preparation containing . . . ppm", "setting": "50 ppm", "value": 5, "unit": "%"}]}]}
